Measured values published in publication PMC2637359 (Journal of cardiovascular pharmacology, 2008).

Tests used:
[1] = AEPU metabolism in rat liver S9 fraction; assay type: in vitro ADME
[2] = Plasma cholesterol levels in ApoE -/- mice; assay type: in vivo, mouse; conditions: AEPU-treated ApoE -/- mice
[3] = target: T1, purified murine sEH recombinant enzyme (Mus musculus, UniProt P34914); assay: sEH activity fluorescent assay; assay type: biochemical
T1 sequence (P34914 1-554): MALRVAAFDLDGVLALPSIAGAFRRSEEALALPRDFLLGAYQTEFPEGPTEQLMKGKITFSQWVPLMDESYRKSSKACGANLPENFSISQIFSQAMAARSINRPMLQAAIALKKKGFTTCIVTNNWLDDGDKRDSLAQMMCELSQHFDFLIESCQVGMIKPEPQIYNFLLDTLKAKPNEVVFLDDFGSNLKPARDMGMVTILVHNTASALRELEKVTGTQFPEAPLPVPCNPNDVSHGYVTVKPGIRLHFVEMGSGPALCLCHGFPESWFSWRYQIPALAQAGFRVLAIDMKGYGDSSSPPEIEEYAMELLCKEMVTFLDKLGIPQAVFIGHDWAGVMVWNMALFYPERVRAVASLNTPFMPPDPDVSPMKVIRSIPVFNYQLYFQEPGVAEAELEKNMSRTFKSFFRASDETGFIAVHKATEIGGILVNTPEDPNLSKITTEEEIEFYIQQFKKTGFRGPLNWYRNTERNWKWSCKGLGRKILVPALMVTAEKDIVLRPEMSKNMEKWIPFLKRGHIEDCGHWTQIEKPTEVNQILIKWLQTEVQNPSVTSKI

[4] = Single oral dose pharmacokinetic study in mice; assay type: in vivo, mouse; conditions: AEPU by oral gavage 10 mg/kg, over 24 hours
in vivo = conditions: ApoE -/-, mouse, plasma, oral, 90 µg/ml in drinking water

Row | SMILES | Metabolism in the absence of NADPH ([1]; rat S9 liver preparation without NADPH) | AEPU remaining in the mixture ([1]; rat liver S9 2.5 mg/mL, NADPH generating system, AEPU 10 µM, 60 min) | Plasma cholesterol level ([2]; control 2.5±0.6 mM) | Plasma cholesterol level ([2]; control 96.2±23.1 mg/dl) | IC50 [3] | times more abundant in the plasma than AEPU [4] | fold less potent on the enzyme than AEPU ([3]; murine sEH) | concentration at 8 weeks (in vivo)
1 | CCOCCOCCOCCCCCNC(=O)NC12CC3CC(CC(C3)C1)C2 [AEPU, 1-adamantan-3-(5-(2-(2-ethylethoxy)ethoxy)pentyl)urea] | no metabolism | less than 10% | 2.5 ± 0.9 mM | 96.2 ± 34.6 mg/dL |  |  |  | 
2 | O=C(NCCCCCOCCOCCOCCO)NC12CC3CC(CC(C3)C1)C2 [Compound 975, 1-adamantan-1-yl-3-(5-{2-[2-(2-hydroxy-ethoxy)-ethoxy]-ethoxy}-pentyl)-urea] |  |  |  |  | 4.7 ± 0.7 nM |  |  | 
3 | CCOCCOCCOCCCCCNC(=O)NC12CC3CC(CC(O)(C3)C1)C2 [Compound 1010, 1-{5-[2-(2-ethoxyethoxy)-ethoxy]-pentyl}-3-(3-hydroxy-adamantan-1-yl)-urea] |  |  |  |  | 78 ± 19 nM | roughly 5,000 times | 28 fold | 565 nM
